Laboratory results from ChEMBL document CHEMBL1125547, “Synthesis and excitatory amino acid pharmacology of a series of heterocyclic-fused quinoxalinones and quinazolinones” (J Med Chem, 1992).

Tests used:
[1] = molecular target: Glutamate receptor ionotropic, NMDA 1 (Rattus norvegicus, UniProt P35439); assay: Displacement of [3H]glycine from glycine site on the NMDA receptor.
[2] = molecular target: T1, Glutamate receptor ionotropic, AMPA (Rattus norvegicus, UniProt P19490+P19491+P19492+P19493); assay: Displacement of [3H]AMPA from Ionotropic glutamate receptor AMPA.; format: protein-complex assay
[3] = molecular target: T1, Glutamate receptor ionotropic, AMPA; assay: Compound was tested for its ability to displace [3H]-AMPA from AMPA receptor; format: protein-complex assay
Glutamate NMDA receptor = assay: Compound was tested for its ability to displace [3H]glycine from glycine site on the N-methyl-D-aspartate glutamate receptor; format: protein-complex assay

CCc1nnc2c(O)nc3cc(Cl)c(Cl)cc3n12
Ki [1]: 4.58 µM
Ki [2]: 4.78 µM

O=[N+]([O-])c1ccc2c(c1)nc(O)c1nnnn12
Ki [1]: > 10 µM
Ki [2]: > 10 µM

Oc1nc2cc(Cl)c(Cl)cc2n2nnnc12
Ki [1]: > 10 µM
Ki [2]: > 10 µM

CCCCc1nnc2c(=O)[nH]c3cc(Cl)c(Cl)cc3n12
Ki [1]: 1.48 µM
Ki [2]: 1.71 µM

Oc1nc2cc(Cl)c(Cl)cc2n2cnnc12
Ki [1]: 0.63 µM
Ki [2]: 4.69 µM

O=c1[nH]c2cc(F)c(F)cc2n2cnnc12
Ki [1]: > 10 µM
Ki [2]: > 10 µM

Oc1nc2cc(Cl)c(Cl)cc2c2ccnn12
Ki [1]: > 10 µM
Ki [2]: > 10 µM

CCCc1nnc2c(O)nc3cc(Cl)c(Cl)cc3n12
Ki [1]: 3.92 µM

O=c1[nH]c2ccc([N+](=O)[O-])cc2n2nnnc12
Ki [1]: > 10 µM
Ki [2]: > 10 µM

O=c1[nH]c2cc(Cl)ccc2c2ccnn12
Ki [1]: > 10 µM
Ki [2]: > 10 µM

O=[N+]([O-])c1cc2nc(O)c3nncn3c2cc1[N+](=O)[O-]
Ki [3]: 5.49 µM
Ki (Glutamate NMDA receptor): 5.12 µM

O=[N+]([O-])c1ccc2c(c1)nc(O)c1nncn12
Ki [1]: 7.35 µM
Ki [2]: 0.99 µM

Cc1nnc2c(=O)[nH]c3cc(Cl)c(Cl)cc3n12
Ki [1]: > 10 µM
Ki [2]: 4.45 µM

Oc1nc2cc(Cl)c(Cl)cc2n2c(-c3ccccc3)nnc12
Ki [1]: > 10 µM
Ki [2]: > 10 µM

Oc1nc2cc(Cl)cc(Cl)c2n2cnnc12
Ki [1]: 2.85 µM
Ki [2]: 3.24 µM

Oc1nc2cc(Cl)c(Cl)cc2n2ccnc12
Ki [1]: 1.26 µM
Ki [2]: 7.38 µM

Oc1nc2cc(Cl)c(Cl)cc2n2c(C(F)(F)F)nnc12
Ki [1]: > 10 µM
Ki [2]: > 10 µM

O=[N+]([O-])c1cc2nc(O)c3nnnn3c2cc1[N+](=O)[O-]
Ki [3]: > 10 µM
Ki (Glutamate NMDA receptor): > 10 µM

Oc1nc2cc(Cl)c(Cl)cc2nc1O [2,3-DIHYDROXY-6,7-DICHLOROQUINOXALINE]
Ki [1]: 0.21 µM
Ki [2]: 1.64 µM

O=c1[nH]c2cc([N+](=O)[O-])c([N+](=O)[O-])cc2[nH]c1=O [DNQX]
Ki (Glutamate NMDA receptor): 0.39 µM
